In patent US8772499B2, “TRPV3 modulators” (AbbVie Inc., priority 2011, dated 2014):
Like-named read-outs stand apart in the source and are kept apart here.

Columns and labels:
human TRPV3 = molecular target: T1, human TRPV3 (Homo sapiens, UniProt Q8NET8); assay: In vitro antagonism of recombinant human TRPV3 activation (FLIPR Tetra calcium assay); assay type: cell-based; conditions: HEK293 cells stably expressing human TRPV3, agonist 2-APB at 80 μM
T1 construct: expressed in transfected cells
T1 sequence (Q8NET8 1-790): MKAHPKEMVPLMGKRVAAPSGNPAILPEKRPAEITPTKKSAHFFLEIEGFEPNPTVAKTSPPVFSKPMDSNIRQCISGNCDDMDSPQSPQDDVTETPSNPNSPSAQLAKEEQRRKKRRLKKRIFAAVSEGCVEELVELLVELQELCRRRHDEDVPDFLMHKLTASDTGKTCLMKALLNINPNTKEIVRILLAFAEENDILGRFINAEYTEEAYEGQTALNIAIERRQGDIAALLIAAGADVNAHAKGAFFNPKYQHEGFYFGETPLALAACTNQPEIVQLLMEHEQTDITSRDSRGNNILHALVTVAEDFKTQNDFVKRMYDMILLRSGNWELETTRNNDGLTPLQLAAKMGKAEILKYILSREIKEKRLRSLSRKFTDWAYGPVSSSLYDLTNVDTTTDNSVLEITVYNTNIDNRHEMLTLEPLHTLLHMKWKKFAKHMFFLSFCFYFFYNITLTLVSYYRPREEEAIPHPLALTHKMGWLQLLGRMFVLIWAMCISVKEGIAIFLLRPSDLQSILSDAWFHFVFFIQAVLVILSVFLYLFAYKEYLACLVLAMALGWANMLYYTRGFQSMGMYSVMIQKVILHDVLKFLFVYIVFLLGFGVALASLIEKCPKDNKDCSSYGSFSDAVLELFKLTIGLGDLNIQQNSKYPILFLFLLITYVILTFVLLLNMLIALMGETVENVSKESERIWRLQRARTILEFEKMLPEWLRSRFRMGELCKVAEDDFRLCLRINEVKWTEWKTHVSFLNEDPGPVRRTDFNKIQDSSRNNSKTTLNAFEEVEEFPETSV
In short: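 Calcium flux read over a 10 min run: compound added at 10 s to Calcium-4-loaded human TRPV3-HEK293 cells, agonist 2-APB (80 μM, its EC80) after 3 min. IC50 derived from peak-minus-baseline signal as percentage of uninhibited 2-APB response, typically averaged over at least two runs.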

[1] = In vitro rat microsomal stability assay; assay type: in vitro ADME, rat (Sprague-Dawley); conditions: for RAT MICROSOMAL STABILITY (% REMAINING AFTER 30 MINUTES): Sprague-Dawley, microsomes, 0.5 h, 0.5 μM, pH 7.4
In short: (§1)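 Compound incubated at 37 °C with NADPH-supplemented liver microsomes, either human or from Sprague-Dawley rat, to assess metabolic stability.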

[2] = system: chronic constriction injury (CCI) model of neuropathic pain; assay: In vivo chronic constriction injury (CCI) model of neuropathic pain, mechanical allodynia (von Frey); set-up: species or system CD1 mice; conditions: 100 mg/kg oral dose, mechanical allodynia 1 hour after dosing, CCI mice, average of eight mice, vehicle 0%, control 100%; for inhibition in vivo at 100 mg/kg: Mus musculus, po, 1 h, read-out: % EFFECT
Protocol: Test compounds were evaluated for analgesic effect in an in vivo chronic constriction injury (CCI) model of neuropathic pain. CD1 mice (Charles River) were used for these studies. Prior to testing (2-4 weeks) animals underwent a surgical procedure consisting of approximately 3 loose ligatures around the sciatic nerve. Following sterilization procedures, under isofluorane anesthetic, a 1.5 cm incision was made dorsal to the pelvis. The biceps femoris and gluteous superficialis (right side) were separated and the sciatic nerve exposed, isolated, and 2-4 loose ligatures (5-0 chromic gut) with less than 1 mm spacing were placed around it. Following hemostasis, the wound was sutured (layer of muscle closed with 5-0 nylon suture, and the wound closed with surgical staples) and coated with iodine. The mice were allowed to recover on a warming plate and were returned to their home cages (soft bedding) when able to walk on their own.
Two to four weeks after the surgery, test compound was administered orally (PO) in these mice, and mechanical allodynia was evaluated 1 hour after oral dosing where the threshold to response was assessed using calibrated von Frey monofilaments. The von Frey monofilaments were applied to the hind paw at increasing forces until the animal responded by lifting its paw. Normally, the force of the von Frey monofilament was innocuous and only in the altered state (allodynia or hyperalgesia) did the animals respond to this stimulation. […] At the end of the experiment, after behavioral testing, plasma (and in some instances brain tissue) was taken for exposure analysis.
Each test compound was evaluated in eight different mice. The data reported in Table 3 represent the average value of the approximate percent effect of each compound in relieving neuropathic pain in mice receiving 100 mg/kg oral dose of the test compound. The grams of force needed to elicit a withdrawal response from the injured mouse that was challenged with vehicle was assigned a 0% effect, while the grams of force needed to elicit a withdrawal response from the control was given a 100% effect.

[3] = In vitro human microsomal stability assay; assay type: in vitro ADME; conditions: for HUMAN MICROSOMAL STABILITY (% REMAINING AFTER 30 MINUTES): microsomes, 0.5 h, 0.5 μM, pH 7.4
In short: as §1

[4] = actual measured value shown parenthetically, in most cases average of at least two runs, read-out: IC50
[5] = reported range, read-out: IC50 (range class)

Structure (SMILES)	IC50 (human TRPV3; [4])	RAT MICROSOMAL STABILITY (% REMAINING AFTER 30 MINUTES) [1]	inhibition in vivo at 100 mg/kg [2]	HUMAN MICROSOMAL STABILITY (% REMAINING AFTER 30 MINUTES) [3]	IC50 (human TRPV3; [5])	RAT […] (% REMAINING AFTER 30 MINUTES) ([1]; rat liver microsomes (Sprague-Dawley), 0.5 μM substrate, 0.25 mg/mL microsomal protein, pH 7.4, 37° C., NADPH, 30 minutes)	% EFFECT [2]	HUMAN […] (% REMAINING AFTER 30 MINUTES) ([3]; human liver microsomes, 0.5 μM substrate, 0.25 mg/mL microsomal protein, pH 7.4, 37° C., NADPH, 30 minutes)
C[C@]1(O)C[C@@](c2ccc(OC(F)(F)F)cc2)([C@@H](O)c2ccccn2)C1 [Example 250, cis-3-[(R)-hydroxy(pyridin-2-yl)methyl]-1-methyl-3-[4-(trifluoromethoxy)-phenyl]cyclobutanol]	9230 nM	70%	57%	70%				
O[C@H](c1ccccn1)C1(c2ccc(OC(F)(F)F)cc2)CC(F)(F)C1 [Example 128, (S)-{3,3-difluoro-1-[4-(trifluoromethoxy)phenyl]cyclobutyl}(pyridin-2-yl)-methanol]	110 nM	67%	78%	59%				
O[C@H](c1ccccn1)[C@]1(c2ccc(Cl)c(Cl)c2)CCO1 [Example 136, (R)-[(2R)-2-(3,4-dichlorophenyl)oxetan-2-yl](pyridin-2-yl)methanol]	390 nM	9.5%	52%	24%				
OC1CC(c2ccc(C(F)(F)F)cc2)(C(O)c2ccccn2)C1 [Example 201, trans-3-[(S)-hydroxy(pyridin-2-yl)methyl]-3-[4-(trifluoromethyl)phenyl]-cyclobutanol]	6010 nM	>85%	64%	73%				
C[C@]1(O)C[C@](c2cc(C(F)(F)F)ccn2)([C@H](O)c2ccccn2)C1 (relative stereo) [Example 285, cis-3-[(S)-hydroxy(pyridin-2-yl)methyl]-1-methyl-3-[4-(trifluoromethyl)-pyridin-2-yl]cyclobutanol]	1000 nM				501 to 1000 nM	69%	59%	83%
C[C@]1(O)C[C@@](c2cccc(OC(F)(F)F)c2)([C@H](O)c2ccccn2)C1 [Example 262, cis-3-[(S)-hydroxy(pyridin-2-yl)methyl]-1-methyl-3-[3-(trifluoromethoxy)-phenyl]cyclobutanol]	630 nM	57%	45%	48%				
CC1(O)CC(c2ccc(OC(F)(F)F)cc2)(C(O)c2ccccn2)C1 (single isomer, unassigned) [Example 134]	860 nM	72%	98%	78%				
OC1CC(c2ccnc(C(F)(F)F)c2)(C(O)c2ccccn2)C1 [Example 306, trans-3-[(S)-hydroxy(pyridin-2-yl)methyl]-3-[2-(trifluoromethyl)pyridin-4-yl]cyclobutanol]	140 nM	>85%	0%	>85%				
OC1CC(c2ccc(Cl)c(Cl)c2)(C(O)c2ccccn2)C1 (single isomer, unassigned) [Example 118]	220 nM	74%		>85%			89%	
OC1CC(c2ccc(Cl)c(Cl)c2)(C(O)c2ccccn2)C1 (single isomer, unassigned) [Example 119]	570 nM	69%		>85%			16%	
OC(c1ccccn1)C1(c2cccc(F)c2)CCCO1 (single isomer, unassigned) [Example 100, (anti)-[2-(3-fluorophenyl)tetrahydrofuran-2-yl](pyridin-2-yl)methanol]	830 nM	2.9%		26%				
Nc1cccnc1C(O)C1(c2ccc(OC(F)(F)F)cc2)CCC1 (stereo not drawn) [Example 121, (3-aminopyridin-2-yl) {1-[4-(trifluoromethoxy)phenyl]cyclobutyl}methanol]	> 20000 nM	0.18%		41%	> 20000 nM			
OC(c1ccccn1)C1(c2cccc(C(F)(F)F)c2)CCC1 (stereo not drawn) [Example 6, pyridin-2-yl{1-[3-(trifluoromethyl)phenyl]cyclobutyl}methanol]	350 nM	2.3%		1.2%				
OC(c1ccccn1)C1(c2cccc(C(F)(F)F)n2)CCC1 (stereo not drawn) [Example 234, pyridin-2-yl{1-[6-(trifluoromethyl)pyridin-2-yl]cyclobutyl}methanol]	5360 nM	23%		19%				
OC(c1ccccn1)C1(c2ccc(Cc3ccccc3)cc2)CCC1 (stereo not drawn) [Example 25, [1-(4-benzylphenyl)cyclobutyl](pyridin-2-yl)methanol]	1180 nM	1.3%		21%				
N[C@H]1CCC[C@@H]1[C@H](O)C1(c2ccc(OC(F)(F)F)cc2)CCC1 [Example 222, (S)-[(1S,2S)-2-aminocyclopentyl]{1-[4-(trifluoromethoxy)phenyl]-cyclobutyl}methanol]	2350 nM	59%		>85%				
CC(c1ccc(Cl)cc1)C1(C(O)c2ccccn2)CCC1 (stereo not drawn) [Example 49, {1-[1-(4-chlorophenyl)ethyl]cyclobutyl}(pyridin-2-yl)methanol]	3270 nM	0.13%		15%				
